According to patent US12551424B2, “Oil-in-water type emulsification composition containing UV wavelength conversion substance” (Shiseido Company, Ltd., priority 2019, dated 2026):

Legend:
[1] = system: Human dermal fibroblasts; test: Cell activity (AlamarBlue) after UV irradiation through a solution of the UV wavelength conversion substance; assay type: cell-based; details: UV 0, 10, 25, 50, 75 or 100 mJ/cm^2, FIG. 3
Method: (§1) A cell sample was prepared as follows: • 1. Human dermal fibroblasts and human skin keratinocytes purchased from Kurabo Industries Ltd. were used. A cell suspension (1 mL) stored in liquid nitrogen was thawed in a water bath (37° C.) to an extent that small ice pellets remained, and then diluted with 9 mL of warm medium. • 2. The diluted suspension was mixed gently and then transferred to a T75 flask and incubated overnight at 37° C. • 3. The next day, the medium was replaced with 10 mL of fresh medium. • 4. The medium was replaced periodically (once every 2 days for fibroblasts and once every 2 to 3 days for keratinocytes) and cell proliferation was continued. Meanwhile, the cells were observed using a microscope, and it was confirmed that the cells grew in the correct form. • 5. After the cells reached about 80% confluence, the cells were passaged. The cells were passaged by washing the cells once with 10 mL of warm PBS, adding 5 mL of warm trypsin to a T75 flask, covering the bottom of the flask with a trypsin solution, followed by aspirating at room temperature for 1 minute. • 6. The flask was allowed to stand in an oven at 37° C. for (maximum) 2 minutes for fibroblasts and (maximum) 7 minutes for keratinocytes. The cells were observed using a microscope and confirmed to be small and oval. • 7. Thereafter, the side of the T75 flask was lightly tapped to release the cells. […]

[2] = system: Human dermal fibroblasts; test: Restoration of cell activity decreased by prior UV irradiation (AlamarBlue); assay type: cell-based; details: FIG. 5
Method: as §1

C-phycocyanin
cell activity (relative fluorescence intensity) ([1]; 0.4% C-phycocyanin solution): the decrease in cell activity was suppressed
cell activity (relative fluorescence intensity) ([1]; 2% C-phycocyanin solution): the cell activity was even increased
cell activity recovery effect, comparison of concentrations ([2]; 0.4% versus 2% C-phycocyanin after 400 mJ/cm^2 pre-irradiation): equivalent at concentrations of 0.4% and 2%
cell activity (relative fluorescence intensity) of cells with once decreased activity ([2]; pre-irradiation 400 mJ/cm^2 without substance, then UV 0-200 mJ/cm^2 through 0.4% or 2% C-phycocyanin): cell activity was recovered
